In US9194864B2, “Screening methods employing insects with blood brain barrier” (Entomopharm ApS, priority 2008, dated 2015):
Like-named read-outs stand apart in the source and are kept apart here. Values belong to the compound of their own block, whether it stands above or below them.

How the values were obtained:
[1] = Hemolymph concentration after injection into grasshoppers, measured by LCMS; conditions: male, Locusta migratoria (grasshopper/locust), in vivo
in vivo = conditions: male, Locusta migratoria (grasshopper/locust)
[2] = cited from earlier work

Compound: O=C1CC2(CCCC2)CC(=O)N1CCCCN1CCN(c2ncccn2)CC1 [buspirone]
concentration at 5 min ([1]; 168 µg per insect): 4500 ng/mL
concentration at 5 min (in vivo; 168 µg per insect): < 20 ng/mL

factor by which measured brain concentration is increased when the neural lamella is included (male, Locusta migratoria (grasshopper/locust), in vivo, 5 min): 3
Compound: CN1CCN2c3ccccc3Cc3ccccc3C2C1 (stereo not drawn) [mianserin]
penetration of the grasshopper blood brain barrier (BBB), conclusion in words (in vivo): penetrates the blood brain barrier (BBB) in grasshoppers

endogenous level in the brain (concentration in brain supernatant) (no injection, washed in saline, 3 brains in one tube): 20 ng/mL
concentration at 5 min (in vivo; 12.6 µg per insect, average concentration in brain supernatant, 20 μl of 630 μg/ml injected, 5 minutes, washed in saline, neural lamella included, 3 brains per tube): 86.5 ng/mL
Compound: NCCc1c[nH]c2ccc(O)cc12 [serotonin]
BBB penetration in vertebrates, in words [2]: very low BBB penetration
concentration at 5 min ([1]; 12.6 µg per insect): 4700 ng/mL
penetration of the grasshopper blood brain barrier (BBB), conclusion in words (Locusta migratoria, injection): only penetrates the grasshopper BBB to a very low extend, if any at all
